The record followed here is PubChem BioAssay AID1259408 (Genetic Toxicology Data Bank (GENE-TOX), 2018).

The source made the active and inactive calls. No rule for the calls is given here.

This data set has as its system GENE-TOX genotoxicity assays, various organisms and cells. Description: GENE-TOX mutagenicity studies. The settings on record: for call: Assay Type: In vivo carcinogenicity studies.
[1] abbreviates: Species/Cell Type: Mammalian polychromatic erythrocytes, Assay Type: Micronucleus test, chromosome aberrations, Assay Code: MNTT, Evaluation Type: Evaluation B (Post-1980).
[2] abbreviates: Species/Cell Type: Bacillus subtilis (H17 vs M45), Assay Type: Rec-assay, spot test, DNA effects (bacterial DNA repair), Assay Code: REWT, Evaluation Type: Evaluation A (Pre-1980).
[3] abbreviates: Species/Cell Type: Salmonella typhimurium (one or more of the five standard strains: TA98, TA100, TA1535, TA1537, and TA1538), Assay Type: Histidine reverse gene mutation, Ames assay, Assay Code: SAL-, Evaluation Type: Evaluation A (Pre-1980).
Setting [4] is: Species/Cell Type: Bacillus subtilis (H17 vs M45), Assay Type: Rec-assay, spot test, DNA effects (bacterial DNA repair), Assay Code: REW+, Evaluation Type: Evaluation A (Pre-1980).
Setting [5] is: Species/Cell Type: Drosophila melanogaster, Assay Type: Sex-linked recessive lethal gene mutation, Assay Code: SRLT, Evaluation Type: Evaluation A (Pre-1980).
The mark [6] stands for this setting: Species/Cell Type: Saccharomyces cerevisiae, Assay Type: Mitotic recombination or gene conversion, Assay Code: YEH-, Evaluation Type: Evaluation A (Pre-1980).
The mark [7] stands for this setting: Species/Cell Type: Escherichia coli WP2 UVRA, Assay Type: Tryptophan reverse gene mutation, Assay Code: WPU-*, Activation: With metabolic activation, Evaluation Type: Evaluation A (Pre-1980).
Where [8] appears, read: Species/Cell Type: Escherichia coli polA (W3119 vs P3478), Assay Type: Rec-assay, DNA effects (bacterial DNA repair), Assay Code: RE1T, Evaluation Type: Evaluation A (Pre-1980).
The mark [9] stands for this setting: Species/Cell Type: Human diploid fibroblasts, Assay Type: Unscheduled DNA synthesis (UDS) in vitro, DNA effects, Assay Code: UDH-, Evaluation Type: Evaluation A (Pre-1980).
[10] abbreviates: Species/Cell Type: Nonhuman, Assay Type: Sister-chromatid exchange (SCE) in vitro, Assay Code: SC2+, Evaluation Type: Evaluation B (Post-1980).
Where [11] appears, read: Species/Cell Type: Salmonella typhimurium (one or more of the five standard strains: TA98, TA100, TA1535, TA1537, and TA1538), Assay Type: Histidine reverse gene mutation, Ames assay, Assay Code: SAL+*, Activation: With metabolic activation, Evaluation Type: Evaluation A (Pre-1980).

Take `CN(C)C(CSC(N)=O)CSC(N)=O`: the mutagenic call is “no conclusion” under setting [1] and “inactive; negative” (Species/Cell Type: Nonhuman bone marrow, Assay Type: Chromosome aberrations, in vivo, Assay Code: CY#-, Evaluation Type: Evaluation A (Pre-1980)).
Take `CCC(C)c1ccccc1OC(=O)NC` (configuration not stated): the mutagenic call is “inactive; negative” (Species/Cell Type: Bacillus subtilis (H17 vs M45T), Assay Type: Rec-assay, spot test, DNA effects (bacterial DNA repair), Assay Code: REX-, Evaluation Type: Evaluation A (Pre-1980)) and “inactive; negative” (Species/Cell Type: Escherichia coli WP2, Assay Type: Tryptophan reverse gene mutation, Assay Code: WP2-, Evaluation Type: Evaluation A (Pre-1980)).
As to `CCCCOCC1CO1` (configuration not stated), the mutagenic call (Species/Cell Type: Mammalian polychromatic erythrocytes, Assay Type: Micronucleus test, chromosome aberrations, Assay Code: MNT+, Evaluation Type: Evaluation B (Post-1980)) is “active; positive”.
For the compound `CCOC(C)=O`, the mutagenic call reads like this: under setting [2], “no conclusion”; (Species/Cell Type: Mammalian polychromatic erythrocytes, Assay Type: Micronucleus test, chromosome aberrations, Assay Code: MNT-, Evaluation Type: Evaluation B (Post-1980)) “inactive; negative”.
With `O=C(O)c1c(Br)c(Br)c(Br)c(Br)c1C(=O)O`, the mutagenic call under setting [3] was “inactive; negative”.
For the compound `COC(=O)Nc1ncc(-c2ccc(Br)cc2)[nH]1`, the mutagenic call (Species/Cell Type: Salmonella typhimurium, Assay Type: Forward and reverse gene mutation, host-mediated assay, Assay Code: HMAT, Evaluation Type: Evaluation A (Pre-1980)) was “no conclusion”.
As for `[Cl][Mn][Cl]`, the mutagenic call under setting [4] is “active; positive”; the mutagenic call (Species/Cell Type: Fischer rat embryo (RLV/1706) cells, Assay Type: Cell transformation, viral enhanced, Assay Code: CTR+, Evaluation Type: Evaluation A (Pre-1980)) is “active; positive”; the mutagenic call (Species/Cell Type: Nonhuman, Assay Type: Sister-chromatid exchange (SCE) in vitro, Assay Code: SC2T, Evaluation Type: Evaluation B (Post-1980)) is listed as “no conclusion”; the mutagenic call (Species/Cell Type: Syrian hamster embryo (SA7/SHE) cells, Assay Type: Cell transformation, viral enhanced, Assay Code: CT7+, Evaluation Type: Evaluation A (Pre-1980)) is “active; positive”.
Take `CCS(=O)CCSP(=S)(OC)OC` (configuration not stated): the mutagenic call under setting [5] is reported as “no conclusion”.
With `O=C[C@H](O)[C@@H](O)[C@H](O)[C@H](S)CO`, the mutagenic call (Species/Cell Type: Rodents, Sex: Male, Assay Type: Dominant lethal test, Assay Code: DLT-, Evaluation Type: Evaluation A (Pre-1980)) is “inactive; negative”.
Consider `CC(=O)OC[C@]12C[C@H](OC(=O)CC(C)C)C(C)=C[C@H]1O[C@@H]1[C@H](O)[C@@H](OC(C)=O)[C@@]2(C)[C@]12CO2`, for which the mutagenic call (Species/Cell Type: Bacillus subtilis (H17 vs M45), Assay Type: Rec-assay, spot test, DNA effects (bacterial DNA repair), Assay Code: REW-, Evaluation Type: Evaluation A (Pre-1980)) is “inactive; negative”; the mutagenic call under setting [6] was “inactive; negative”; the mutagenic call (Species/Cell Type: Salmonella typhimurium (one or more of the five standard strains: TA98, TA100, TA1535, TA1537, and TA1538), Assay Type: Histidine reverse gene mutation, Ames assay, Assay Code: SALT, Evaluation Type: Evaluation A (Pre-1980)) is given as “no conclusion”.
For the compound `CN(C)C(=O)Nc1ccc(Cl)cc1`, the mutagenic call by setting is: under setting [2], “no conclusion”; under setting [5], “no conclusion”; under setting [7], “inactive; negative”; under setting [8], “no conclusion”; (Species/Cell Type: Hordeum vulgare (barley), Assay Type: Chromosome aberrations, Assay Code: HOC+, Evaluation Type: Evaluation A (Pre-1980)) “active; positive”; under setting [9], “inactive; negative”. Further, the mutagenic call under setting [6] was “inactive; negative”. Besides, under “Species/Cell Type: Nonhuman, Assay Code: CCG+L, Evaluation Type: Evaluation A (Pre-1980)”, the call was “active; positive”.
With `CN(C)c1ccc2cc3ccc(=[N+](C)C)cc-3sc2c1`, the mutagenic call (Species/Cell Type: Saccharomyces cerevisiae, Assay Type: Reverse gene mutation, Assay Code: YER-, Evaluation Type: Evaluation A (Pre-1980)) was “inactive; negative”.
Consider `Clc1ccc(C(c2ccccc2Cl)C(Cl)Cl)cc1` (configuration not stated), for which the mutagenic call (Species/Cell Type: Nonhuman, Assay Type: Chromosome aberrations in vitro, Assay Code: CY&+, Evaluation Type: Evaluation A (Pre-1980)) was “active; positive”.
As for `CC(=O)O[C@]1(C(C)=O)CC[C@H]2[C@@H]3C=C(Cl)C4=CC(=O)[C@@H]5C[C@@H]5[C@]4(C)[C@H]3CC[C@@]21C`, the mutagenic call (Species/Cell Type: Human, Sex: Male, Assay Type: Sperm morphology, Assay Code: SPH+, Evaluation Type: Evaluation A (Pre-1980)) was “active; positive”.
Turning to `CN1CCC[C@H]1c1cccnc1`, the mutagenic call was “inactive; negative” (Species/Cell Type: Neurospora crassa, Assay Type: Aneuploidy, chromosome aberrations, Assay Code: NEN-, Evaluation Type: Evaluation A (Pre-1980)); “active; positive” under setting [10]; “inactive; negative” under setting [3].
Turning to `C[C@@H]1O[C@H]1P(=O)(O)O`, the mutagenic call under setting [1] is on record as “no conclusion”.
On to `CC(C)=CC1C(C(=O)OCc2cccc(Oc3ccccc3)c2)C1(C)C` (configuration not stated), for which the mutagenic call was “inactive; negative” under setting [9] and “inactive; negative” under setting [6].
In the case of `COCCOc1cnc(NS(=O)(=O)c2ccccc2)nc1`, under “Species/Cell Type: Nonhuman, Assay Type: Sister-chromatid exchange (SCE) in vivo, Assay Code: SC3T, Evaluation Type: Evaluation B (Post-1980)”, the mutagenic call is on record as “no conclusion”.
For the compound `COC(=O)[C@H](N)Cc1cnc[nH]1`, where the note is “Species/Cell Type: Drosophila melanogaster, Assay Type: Sex-linked recessive lethal gene mutation, Assay Code: SRL-, Evaluation Type: Evaluation A (Pre-1980)”, the mutagenic call is “inactive; negative”.
For the compound `CNC(=O)C(C)SCCSP(=O)(OC)OC` (configuration not stated), the mutagenic call runs as follows: under setting [4], “active; positive”; (Species/Cell Type: Escherichia coli WP2, Assay Type: Tryptophan reverse gene mutation, Assay Code: WP2+, Evaluation Type: Evaluation A (Pre-1980)) “active; positive”; (Species/Cell Type: Escherichia coli WP2 UVRA, Assay Type: Tryptophan reverse gene mutation, Assay Code: WPU+, Evaluation Type: Evaluation A (Pre-1980)) “active; positive”; (Species/Cell Type: Nonhuman, Assay Type: Sister-chromatid exchange (SCE) in vitro, Assay Code: SC2+D, Dose Response: With dose response, Evaluation Type: Evaluation B (Post-1980)) “active; positive”; (Species/Cell Type: Salmonella typhimurium (one or more of the five standard strains: TA98, TA100, TA1535, TA1537, and TA1538), Assay Type: Histidine reverse gene mutation, Ames assay, Assay Code: SAL+, Evaluation Type: Evaluation A (Pre-1980)) “active; positive”.
Take `CCOP(=S)(OCC)Oc1cc(C)nc(C(C)C)n1`: the mutagenic call by setting is: under setting [2], “no conclusion”; under setting [7], “inactive; negative”; under setting [8], “no conclusion”; under setting [9], “inactive; negative”; (Species/Cell Type: Human, Assay Type: Sister-chromatid exchange (SCE) in vitro, Assay Code: SC1+, Evaluation Type: Evaluation B (Post-1980)) “active; positive”; under setting [10], “active; positive”. Further, the mutagenic call under setting [6] was “inactive; negative” and the mutagenic call under setting [3] is “inactive; negative”. Further, the call (Species/Cell Type: Nonhuman, Assay Code: CCG-, Evaluation Type: Evaluation A (Pre-1980)) was “inactive; negative”.
In the case of `CN(C)c1ccccc1N=Nc1ccccc1`, the mutagenic call (Species/Cell Type: Salmonella typhimurium, Assay Type: Forward and reverse gene mutation, host-mediated assay, Assay Code: HMA+, Evaluation Type: Evaluation A (Pre-1980)) was “active; positive”.
As for `OC(CCl)CCl`, the mutagenic call under setting [11] was “active; positive”.
Regarding `Cc1c2ccccc2cc2c3c(ccc12)C(O)C(O)C=C3` (configuration not stated), the mutagenic call by setting is: (Species/Cell Type: Mouse prostate cells, Assay Type: Cell transformation, Assay Code: CTM+, Evaluation Type: Evaluation A (Pre-1980)) “active; positive”; (Species/Cell Type: Nonhuman, Assay Type: Sister-chromatid exchange (SCE) in vitro, Assay Code: SC2+D, Dose Response: With dose response, Evaluation Type: Evaluation A (Pre-1980)) “active; positive”; under setting [11], “active; positive”.
On to `c1ccc2c3c(ccc2c1)-c1cccc2cccc-3c12`, for which the call (Species/Cell Type: Nonhuman, Assay Code: CCG+, Evaluation Type: Evaluation A (Pre-1980)) was “active; positive”.
As for `[Cl][Pt-2]([Cl])([Cl])[Cl]`, the mutagenic call (Species/Cell Type: Chinese hamster ovary (CHO) cells, Assay Type: Forward gene mutation at the HPRT locus, Assay Code: CHOT, Evaluation Type: Evaluation B (Post-1980)) is “no conclusion”.
As for `Cc1c2ccncc2c(C)c2c1[nH]c1ccccc12`, the mutagenic call was “active; positive” (Species/Cell Type: Chinese hamster ovary (CHO) cells, Assay Type: Forward gene mutation at the HPRT locus, Assay Code: CHO+, Evaluation Type: Evaluation B (Post-1980)) and “active; positive” under setting [10].
For the compound `Cc1c2c(cc3c1ccc1ccccc13)C=CC(O)C2O` (configuration not stated), the mutagenic call under setting [11] was “active; positive”.
The same measure, in the same setting: to `CC1CCc2c1ccc1c2ccc2ccccc21` (configuration not stated) belongs “active; positive”.
